Measurements from patent US20260297081A1, “COMPOUNDS AND METHODS OF TREATING CANCERS” (Cullgen Inc., priority 2023, published 2026).

How the values were obtained:
Type in all cases: cell-based
[1] = system: MCF7 cells; test: Anti-proliferation (viability) of MCF7 cells (Table 7, FIG. 2B); details: Homo sapiens, MCF7, MCF7 cells, 3-6 days, 10-point serial dilution; read-out: GI IC50 in MCF-7
[2] = target: T1, CDK4 (Homo sapiens, UniProt P11802+Q16531); test: CDK4 percentage degradation in Calu-1 cells (Table 6); parameters: Cells that express cyclin D1-3 and CDK4/6 proteins were treated with heterobifunctional compounds; endogenous in cells; host or cells: Calu-1; details: 16 hours; for inhibition at 0.04 µM: 40 nM; for inhibition at 0.2 µM: 200 nM
How it was run: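 Percentage degradation of Cyclin D1 and CDK4 derived from densitometry of ECL Western blots on lysates of Calu-1 cells. Treatment was 16 h with compound at either 40 nM or 200 nM.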
Target sequence in this assay (P11802 2-303 limits assumed): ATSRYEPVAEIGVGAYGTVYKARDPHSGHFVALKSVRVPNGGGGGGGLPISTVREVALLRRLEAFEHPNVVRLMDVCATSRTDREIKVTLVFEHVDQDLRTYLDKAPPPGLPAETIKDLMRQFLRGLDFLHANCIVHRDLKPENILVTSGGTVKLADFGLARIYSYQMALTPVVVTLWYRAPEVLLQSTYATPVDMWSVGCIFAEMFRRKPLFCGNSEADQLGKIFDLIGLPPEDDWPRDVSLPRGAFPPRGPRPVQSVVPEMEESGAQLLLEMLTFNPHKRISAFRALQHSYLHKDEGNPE
Target sequence in this assay (P24385 whole entry partner): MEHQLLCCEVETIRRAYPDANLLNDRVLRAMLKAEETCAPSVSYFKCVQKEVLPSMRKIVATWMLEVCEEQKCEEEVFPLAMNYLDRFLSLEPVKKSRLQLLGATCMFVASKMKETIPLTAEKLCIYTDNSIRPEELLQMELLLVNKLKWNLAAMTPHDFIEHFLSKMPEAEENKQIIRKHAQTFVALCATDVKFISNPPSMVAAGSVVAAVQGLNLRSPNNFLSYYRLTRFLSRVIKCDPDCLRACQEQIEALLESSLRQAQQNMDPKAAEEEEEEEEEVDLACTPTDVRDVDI
Target sequence in this assay (Q16531 2-1140 limits assumed): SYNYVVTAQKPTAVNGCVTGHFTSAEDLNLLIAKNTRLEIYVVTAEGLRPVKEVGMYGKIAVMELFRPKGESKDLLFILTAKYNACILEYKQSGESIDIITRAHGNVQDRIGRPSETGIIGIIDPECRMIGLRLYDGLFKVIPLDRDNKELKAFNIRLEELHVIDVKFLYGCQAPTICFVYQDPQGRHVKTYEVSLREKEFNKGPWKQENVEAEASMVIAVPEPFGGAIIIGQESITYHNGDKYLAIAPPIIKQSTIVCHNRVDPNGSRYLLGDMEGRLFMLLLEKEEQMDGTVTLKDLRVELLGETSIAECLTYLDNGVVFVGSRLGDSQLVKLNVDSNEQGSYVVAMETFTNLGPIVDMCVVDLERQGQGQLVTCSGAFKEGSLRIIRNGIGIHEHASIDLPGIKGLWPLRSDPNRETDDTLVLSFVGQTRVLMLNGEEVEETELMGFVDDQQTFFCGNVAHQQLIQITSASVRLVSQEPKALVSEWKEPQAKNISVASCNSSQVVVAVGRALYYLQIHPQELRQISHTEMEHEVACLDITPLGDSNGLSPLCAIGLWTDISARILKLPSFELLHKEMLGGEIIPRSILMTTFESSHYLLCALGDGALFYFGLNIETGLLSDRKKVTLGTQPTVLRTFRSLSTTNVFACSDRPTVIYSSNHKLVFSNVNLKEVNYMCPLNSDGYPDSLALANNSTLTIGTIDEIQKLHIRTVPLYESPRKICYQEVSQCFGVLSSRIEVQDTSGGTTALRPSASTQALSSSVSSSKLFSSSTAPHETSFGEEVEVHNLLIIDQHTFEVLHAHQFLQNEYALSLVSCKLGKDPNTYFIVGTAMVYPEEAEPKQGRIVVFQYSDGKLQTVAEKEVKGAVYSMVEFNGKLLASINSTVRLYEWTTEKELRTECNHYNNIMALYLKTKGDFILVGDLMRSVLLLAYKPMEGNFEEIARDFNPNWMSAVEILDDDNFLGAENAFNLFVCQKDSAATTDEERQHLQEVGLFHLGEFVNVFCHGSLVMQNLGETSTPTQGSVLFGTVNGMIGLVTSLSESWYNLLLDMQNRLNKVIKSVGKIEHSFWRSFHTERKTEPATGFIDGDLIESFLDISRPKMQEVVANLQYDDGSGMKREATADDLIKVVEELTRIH

[3] = target: T1, CDK4; test: HiBiT detection of HiBiT-tagged CDK4 protein level in MCF7 cells, 16 hours (Table 8); parameters: expressed in transfected cells; host or cells: MCF7; details: MCF7 cells stably expressing HiBiT tagged target proteins; for activity at 0.01 µM: 10 nM, read-out: % CDK4 Relative Level (10 nM); for activity at 0.1 µM: 100 nM, read-out: % CDK4 Relative Level (100 nM)
Description: HiBiT detection system quantitatively measures total amounts of HiBiT-tagged proteins using a luminescent based method. MCF7 cells stably expressing HiBiT tagged target proteins were treated with heterobifunctional compounds at indicated concentrations for 16 hours, then lysed with Nano-Glo HiBiT Lytic detection reagents.
Target sequence in this assay (P11802 whole entry): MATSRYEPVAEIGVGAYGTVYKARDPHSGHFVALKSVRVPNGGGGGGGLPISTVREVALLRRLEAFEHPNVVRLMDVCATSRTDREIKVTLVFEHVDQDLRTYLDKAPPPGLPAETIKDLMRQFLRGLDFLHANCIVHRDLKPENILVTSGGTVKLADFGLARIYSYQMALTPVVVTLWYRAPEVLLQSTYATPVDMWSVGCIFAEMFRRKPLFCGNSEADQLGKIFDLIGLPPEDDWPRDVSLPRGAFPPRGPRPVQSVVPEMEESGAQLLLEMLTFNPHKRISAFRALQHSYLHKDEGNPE
Target sequence in this assay (P24385 whole entry partner): as the sequence (P24385 whole entry partner) above
Target sequence in this assay (Q16531 2-1140 limits assumed): as the sequence (Q16531 2-1140 limits assumed) above

Compound	IC50 [1]	inhibition at 0.04 µM [2]	inhibition at 0.2 µM [2]	activity at 0.01 µM [3]	activity at 0.1 µM [3]
CC(=O)c1c(C)c2cnc(Nc3ccc(N4CCN(CCC(=O)N5CCC(Nc6nc(NC(C)C)ccc6C(=O)Nc6ccc(N(C)C)nn6)CC5)CC4)cn3)nc2n(C2CCCC2)c1=O [CPD-301, 2-((1-(3-(4-(6-((6-acetyl-8-cyclopentyl-5-methyl-7-oxo-7,8-dihydropyrido[2,3-d]pyrimidin-2-yl)amino)pyridin-3-yl)piperazin-1-yl)propanoyl)piperidin-4-yl)amino)-N-(6-(dimethylamino)pyridazin-3-yl)-6-(isopropylamino)nicotinamide]	< 0.05 µM	< 30%	< 30%	55 to 85%	55 to 85%
CC(=O)c1c(C)c2cnc(Nc3ccc(N4CCN(CC5(C(=O)N6CC7(CC(Nc8nc(NC(C)C)ccc8C(=O)Nc8ccc(N(C)C)nn8)C7)C6)CC5)CC4)cn3)nc2n(C2CCCC2)c1=O [CPD-306, 2-((2-(1-((4-(6-((6-acetyl-8-cyclopentyl-5-methyl-7-oxo-7,8-dihydropyrido[2,3-d]pyrimidin-2-yl)amino)pyridin-3-yl)piperazin-1-yl)methyl)cyclopropane-1-carbonyl)-2-azaspiro[3.3]heptan-6-yl)amino)-N-(6-(dimethylamino)pyridazin-3-yl)-6-(isopropylamino)nicotinamide]	< 0.05 µM	30 to 50%	30 to 50%	55 to 85%	55 to 85%
CC(=O)c1c(C)c2cnc(Nc3ccc(N4CCC(N(C)CC(=O)N5CCC(Nc6nc(NC(C)C)ccc6C(=O)Nc6ccc(N(C)C)nn6)CC5)CC4)cn3)nc2n(C2CCCC2)c1=O [CPD-360, 2-((1-(N-(1-(6-((6-acetyl-8-cyclopentyl-5-methyl-7-oxo-7,8-dihydropyrido[2,3-d]pyrimidin-2-yl)amino)pyridin-3-yl)piperidin-4-yl)-N-methylglycyl)piperidin-4-yl)amino)-N-(6-(dimethylamino)pyridazin-3-yl)-6-(isopropylamino)nicotinamide]	< 0.05 µM	< 30%	< 30%	55 to 85%	55 to 85%
CNc1ccc(C(=O)Nc2ccc(N(C)C)nn2)c(NCCCCCCNC(=O)CN2CCN(c3ccc(Nc4ncc5cc6n(c5n4)C4(CCCCC4)CNC6=O)nc3)CC2)n1 [CPD-644, N-(6-(dimethylamino)pyridazin-3-yl)-6-(methylamino)-2-((6-(2-(4-(6-((6′-oxo-7′,8′-dihydro-6′H-spiro[cyclohexane-1,9′-pyrazino[1′,2′:1,5]pyrrolo[2,3-d]pyrimidin]-2′-yl)amino)pyridin-3-yl)piperazin-1-yl)acetamido)hexyl)amino)nicotinamide]	> 0.1 µM			> 85%	> 85%
CCc1ccc(C(=O)Nc2ccc(N(C)C)nn2)c(N[C@H]2CC[C@H](C(=O)N3CCC(N4CCN(C5CCC(Nc6ncc7c(C)c(C(C)=O)c(=O)n(C8CCCC8)c7n6)CC5)CC4)C3)CC2)n1 (stereo partly drawn) [CPD-597, 2-((trans-4-(3-(4-(4-((6-acetyl-8-cyclopentyl-5-methyl-7-oxo-7,8-dihydropyrido[2,3-d]pyrimidin-2-yl)amino)cyclohexyl)piperazin-1-yl)pyrrolidine-1-carbonyl)cyclohexyl)amino)-N-(6-(dimethylamino)pyridazin-3-yl)-6-ethylnicotinamide]	< 0.05 µM			> 85%	55 to 85%
CC(=O)c1c(C)c2cnc(Nc3ccc(CN4CCN(C(C)C(=O)NC5CC6(C5)CC(Nc5nc(NC(C)C)ccc5C(=O)Nc5ccc(N(C)C)nn5)C6)CC4)cn3)nc2n(C2CCCC2)c1=O (stereo not drawn) [CPD-585, 2-((6-(2-(4-((6-((6-acetyl-8-cyclopentyl-5-methyl-7-oxo-7,8-dihydropyrido[2,3-d]pyrimidin-2-yl)amino)pyridin-3-yl)methyl)piperazin-1-yl)propanamido)spiro[3.3]heptan-2-yl)amino)-N-(6-(dimethylamino)pyridazin-3-yl)-6-(isopropylamino)nicotinamide]	< 0.05 µM			55 to 85%	55 to 85%
CC(=O)c1c(C)c2cnc(Nc3ccc(CC4CCN(CC(=O)NC5CC6(C5)CC(Nc5nc(NC(C)C)ccc5C(=O)Nc5ccc(N(C)C)nn5)C6)CC4)cn3)nc2n(C2CCCC2)c1=O (stereo not drawn) [CPD-599, 2-((6-(2-(4-((6-((6-acetyl-8-cyclopentyl-5-methyl-7-oxo-7,8-dihydropyrido[2,3-d]pyrimidin-2-yl)amino)pyridin-3-yl)methyl)piperidin-1-yl)acetamido)spiro[3.3]heptan-2-yl)amino)-N-(6-(dimethylamino)pyridazin-3-yl)-6-(isopropylamino)nicotinamide]	< 0.05 µM			55 to 85%	55 to 85%
CNc1ccc(C(=O)Nc2ccc(N(C)C)nn2)c(NCCCC(=O)N2CCN(c3ccc(Nc4ncc5cc(C(=O)N(C)C)n(C6CCCC6)c5n4)nc3)CC2)n1 [CPD-617, 7-cyclopentyl-2-((5-(4-(4-((3-((6-(dimethylamino)pyridazin-3-yl)carbamoyl)-6-(methylamino)pyridin-2-yl)amino)butanoyl)piperazin-1-yl)pyridin-2-yl)amino)-N,N-dimethyl-7H-pyrrolo[2,3-d]pyrimidine-6-carboxamide]	> 0.1 µM			> 85%	> 85%
CC(=O)c1c(C)c2cnc(Nc3ccc(CN4CCN(CC(=O)NC5CC6(C5)CC(Nc5nc(C(C)C)ccc5C(=O)Nc5ccc(N(C)C)nn5)C6)CC4)cn3)nc2n(C2CCCC2)c1=O (stereo not drawn) [CPD-579, 2-((6-(2-(4-((6-((6-acetyl-8-cyclopentyl-5-methyl-7-oxo-7,8-dihydropyrido[2,3-d]pyrimidin-2-yl)amino)pyridin-3-yl)methyl)piperazin-1-yl)acetamido)spiro[3.3]heptan-2-yl)amino)-N-(6-(dimethylamino)pyridazin-3-yl)-6-isopropylnicotinamide]	< 0.05 µM			55 to 85%	55 to 85%
CNc1ccc(C(=O)Nc2ccc(N(C)C)nn2)c(NCCCCCCC(=O)N2CCN(c3ccc(Nc4ncc5cc(C(=O)N(C)C)n(C6CCCC6)c5n4)nc3)CC2)n1 [CPD-620, 7-cyclopentyl-2-((5-(4-(7-((3-((6-(dimethylamino)pyridazin-3-yl)carbamoyl)-6-(methylamino)pyridin-2-yl)amino)heptanoyl)piperazin-1-yl)pyridin-2-yl)amino)-N,N-dimethyl-7H-pyrrolo[2,3-d]pyrimidine-6-carboxamide]	> 0.1 µM			55 to 85%	55 to 85%
CNc1ccc(C(=O)Nc2ccc(N(C)C)nn2)c(NCCC(=O)N2CCN(Cc3ccc(Nc4ncc(F)c(-c5cc(F)c6nc(C)n(C(C)C)c6c5)n4)nc3)CC2)n1 [CPD-600, N-(6-(dimethylamino)pyridazin-3-yl)-2-((3-(4-((6-((5-fluoro-4-(4-fluoro-1-isopropyl-2-methyl-1H-benzo[d]imidazol-6-yl)pyrimidin-2-yl)amino)pyridin-3-yl)methyl)piperazin-1-yl)-3-oxopropyl)amino)-6-(methylamino)nicotinamide]	> 0.1 µM			55 to 85%	55 to 85%
